Laboratory results as given in PubChem BioAssay AID330 (DTP/NCI, 2004).
Values joined by “and” are separate entries in the source; they are usually repeats but may differ in a detail not shown here. Identical values can stand only once. Toxic doses and inconclusive results are not listed. Rule for the calls: active = survival T/C of 150% or more; inactive = T/C below 125% in these data.

Tested on: P388 leukemia ip, CD2F1 mice, survival T/C
Experiment: NCI In Vivo Anticancer Drug Screen. Data for tumor model P388 Leukemia (intraperitoneal) in CD2F1 (CDF1) mice
Details: endpoint: median survival time, higher = longer survival
In short: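 Mice carrying the transplanted tumor received test compound or vehicle. Survival was recorded in each group, and the value is the treated-group measurement divided by that of the vehicle-treated control group.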

[1] = dose: 50.0 mg/kg/injection, schedule: Q01DX005 (ip), vehicle: saline with Tween-80
[2] = dose: 100.0 mg/kg/injection, schedule: Q01DX005 (ip), vehicle: saline with Tween-80
[3] = dose: 100.0 mg/kg/injection, schedule: Q04DX003 (ip), vehicle: Klucel (hydroxypropylcellulose) (HPC)
[4] = dose: 200.0 mg/kg/injection, schedule: Q04DX003 (ip), vehicle: Klucel (hydroxypropylcellulose) (HPC)
[5] = dose: 400.0 mg/kg/injection, schedule: Q04DX003 (ip), vehicle: Klucel (hydroxypropylcellulose) (HPC)
[6] = dose: 50.0 mg/kg/injection, schedule: Q01DX005 (ip), vehicle: Klucel (hydroxypropylcellulose) (HPC)
[7] = dose: 100.0 mg/kg/injection, schedule: Q01DX005 (ip), vehicle: Klucel (hydroxypropylcellulose) (HPC)
[8] = dose: 25.0 mg/kg/injection, schedule: Q01DX009 (ip), vehicle: saline with Tween-80
[9] = dose: 50.0 mg/kg/injection, schedule: Q01DX009 (ip), vehicle: saline with Tween-80
[10] = dose: 100.0 mg/kg/injection, schedule: Q01DX009 (ip), vehicle: saline with Tween-80
[11] = dose: 200.0 mg/kg/injection, schedule: Q01DX009 (ip), vehicle: saline with Tween-80
[12] = dose: 400.0 mg/kg/injection, schedule: Q01DX009 (ip), vehicle: saline with Tween-80

Measured: T/C

O=C1C(Cl)=C(NC2C(O)OC(CO)C(O)C2O)C(=O)C(Cl)=C1NC1C(O)OC(CO)C(O)C1O (configuration not stated)
inactive: [1] 96 % of control | [2] 90 % of control | dose: 200.0 mg/kg/injection, schedule: Q01DX005 (ip), vehicle: saline with Tween-80 97 % of control

CCC(CCC(C)C1CCC2C3CC=C4CC(OP(=[Se])(c5ccccc5)c5ccccc5)CCC4(C)C3CCC12C)C(C)C (configuration not stated)
inactive: dose: 13.75 mg/kg/injection, schedule: Q01DX001 (ip), vehicle: Klucel (hydroxypropylcellulose) (HPC) 102 % of control | dose: 27.5 mg/kg/injection, schedule: Q01DX001 (ip), vehicle: Klucel (hydroxypropylcellulose) (HPC) 106 % of control | dose: 55.0 mg/kg/injection, schedule: Q01DX001 (ip), vehicle: Klucel (hydroxypropylcellulose) (HPC) 104 % of control

O=Nc1ccc(NO)cc1
inactive: dose: 25.0 mg/kg/injection, schedule: Q04DX003 (ip), vehicle: Klucel (hydroxypropylcellulose) (HPC) 110 % of control | dose: 50.0 mg/kg/injection, schedule: Q04DX003 (ip), vehicle: Klucel (hydroxypropylcellulose) (HPC) 108 % of control | [3] 103 % of control | [4] 110 % of control | [5] 88 % of control

CC(=O)NCCSc1nc(-c2ccccc2)c(-c2ccccc2)o1
inactive: dose: 50.0 mg/kg/injection, schedule: Q01DX009 (ip), vehicle: Klucel (hydroxypropylcellulose) (HPC) 95 % of control | dose: 100.0 mg/kg/injection, schedule: Q01DX009 (ip), vehicle: Klucel (hydroxypropylcellulose) (HPC) 104 % of control | dose: 200.0 mg/kg/injection, schedule: Q01DX009 (ip), vehicle: Klucel (hydroxypropylcellulose) (HPC) 101 % of control

COC(=O)C1(C)CCCC2(C)C3=C(CCC12)C(=O)c1occc1CC3 (configuration not stated)
inactive: dose: 0.37 mg/kg/injection, schedule: Q01DX009 (ip), vehicle: Klucel (hydroxypropylcellulose) (HPC) 100 % of control | dose: 0.75 mg/kg/injection, schedule: Q01DX009 (ip), vehicle: Klucel (hydroxypropylcellulose) (HPC) 103 % of control | dose: 1.5 mg/kg/injection, schedule: Q01DX009 (ip), vehicle: Klucel (hydroxypropylcellulose) (HPC) 100 % of control | dose: 3.0 mg/kg/injection, schedule: Q01DX009 (ip), vehicle: Klucel (hydroxypropylcellulose) (HPC) 99 % of control | dose: 6.0 mg/kg/injection, schedule: Q01DX009 (ip), vehicle: Klucel (hydroxypropylcellulose) (HPC) 108 % of control

O.O.O=C(O)C(=O)O.O=C(O)C(=O)O.[Rh]
inactive: dose: 25.0 mg/kg/injection, schedule: Q04DX003 (ip), vehicle: water 94 % of control | dose: 50.0 mg/kg/injection, schedule: Q04DX003 (ip), vehicle: water 95 % of control | dose: 100.0 mg/kg/injection, schedule: Q04DX003 (ip), vehicle: water 100 % of control | dose: 200.0 mg/kg/injection, schedule: Q04DX003 (ip), vehicle: water 100 % of control

ON=C1CCC(=NO)CC1
inactive: dose: 25.0 mg/kg/injection, schedule: Q04DX003 (ip), vehicle: saline 101 % of control | dose: 50.0 mg/kg/injection, schedule: Q04DX003 (ip), vehicle: saline 100 % of control | dose: 100.0 mg/kg/injection, schedule: Q04DX003 (ip), vehicle: saline 95 % of control | dose: 200.0 mg/kg/injection, schedule: Q04DX003 (ip), vehicle: saline 107 % of control | dose: 400.0 mg/kg/injection, schedule: Q04DX003 (ip), vehicle: saline 101 % of control

O=C1CC(c2ccccc2)=NN1c1ccccc1
inactive: [6] 101 % of control | [7] 99 % of control | dose: 200.0 mg/kg/injection, schedule: Q01DX005 (ip), vehicle: Klucel (hydroxypropylcellulose) (HPC) 95 % of control

CCOC(=O)C(CCl)C(C(=O)OCC)C(=O)OCC (configuration not stated)
inactive: [8] 117 % of control | [9] 110 % of control | [10] 112 % of control

O=C(CCl)NC(Cc1ccccc1)C(=O)O (configuration not stated)
inactive: [8] 99 % of control | [9] 99 % of control and 89 % of control | [10] 100 % of control and 104 % of control | [11] 94 % of control | [12] 103 % of control

CCCSCCCCSCCC
inactive: [10] 100 % of control | [11] 108 % of control

CCOC(=O)C(CNc1ccc(O)cc1)NC(=O)c1ccccc1 (configuration not stated)
inactive: dose: 50.0 mg/kg/injection, schedule: Q01DX009 (ip), vehicle: saline 101 % of control | [10] 94 % of control | dose: 100.0 mg/kg/injection, schedule: Q01DX009 (ip), vehicle: saline 103 % of control | [11] 94 % of control | dose: 200.0 mg/kg/injection, schedule: Q01DX009 (ip), vehicle: saline 102 % of control | [12] 94 % of control | dose: 400.0 mg/kg/injection, schedule: Q01DX009 (ip), vehicle: saline 101 % of control

CCOC(=O)CSc1ccc(C)cc1C(O)(C(F)(F)F)C(F)(F)F
inactive: dose: 12.5 mg/kg/injection, schedule: Q01DX009 (ip), vehicle: saline with Tween-80 98 % of control | [8] 99 % of control | [9] 108 % of control | [10] 99 % of control | [11] 101 % of control

CC1(c2ccc(S(=O)(=O)c3ccccc3)cc2)OC(=O)C=CC1=O (configuration not stated)
inactive: dose: 6.25 mg/kg/injection, schedule: Q01DX005 (ip), vehicle: saline with Tween-80 89 % of control | dose: 12.5 mg/kg/injection, schedule: Q01DX005 (ip), vehicle: saline with Tween-80 89 % of control | dose: 25.0 mg/kg/injection, schedule: Q01DX005 (ip), vehicle: saline with Tween-80 115 % of control | [1] 120 % of control

C[N+]12CCO[B-]1(c1ccccc1)OCC2 (configuration not stated)
inactive: dose: 60.0 mg/kg/injection, schedule: Q01DX005 (ip), vehicle: saline 108 % of control | dose: 120.0 mg/kg/injection, schedule: Q01DX005 (ip), vehicle: saline 100 % of control | dose: 240.0 mg/kg/injection, schedule: Q01DX005 (ip), vehicle: saline 100 % of control

CC(=O)Nc1ccc(Br)c(NC(C)=O)n1
inactive: dose: 100.0 mg/kg/injection, schedule: Q04DX003 (ip), vehicle: saline with Tween-80 104 % of control | dose: 200.0 mg/kg/injection, schedule: Q04DX003 (ip), vehicle: saline with Tween-80 104 % of control | dose: 400.0 mg/kg/injection, schedule: Q04DX003 (ip), vehicle: saline with Tween-80 109 % of control

CCOC(=O)COc1cc2c(cc1Cc1ccc(OC)cc1)OCO2
inactive: [1] 97 % of control | [2] 92 % of control

O=S1(=O)c2cccc(c2)NC(=S)/C([n+]2ccccc2)=C(/[O-])c2ccc(cc2)CC2CCCCN21 (configuration not stated)
inactive: [6] 94 % of control | [7] 87 % of control

CCCCCC(CN(C)C)C(=O)/C=C/c1ccc(Br)cc1 (configuration not stated)
inactive: dose: 6.25 mg/kg/injection, schedule: Q01DX005 (ip), vehicle: saline 100 % of control | dose: 12.5 mg/kg/injection, schedule: Q01DX005 (ip), vehicle: saline 110 % of control | dose: 25.0 mg/kg/injection, schedule: Q01DX005 (ip), vehicle: saline 107 % of control | dose: 50.0 mg/kg/injection, schedule: Q01DX005 (ip), vehicle: saline 102 % of control

Clc1ccc(CN2COc3c(cc(Cl)c4cccnc34)C2)cc1
inactive: [3] 88 % of control | [4] 91 % of control | [5] 106 % of control

COc1cc(-c2cnc3c(n2)c(=O)[nH]c(=O)n3C)ccc1O
inactive: dose: 100.0 mg/kg/injection, schedule: Q04DX002 (ip), vehicle: saline 104 % of control | dose: 200.0 mg/kg/injection, schedule: Q04DX002 (ip), vehicle: saline 103 % of control | dose: 400.0 mg/kg/injection, schedule: Q04DX002 (ip), vehicle: saline 95 % of control
